Here are results for two compounds from patent publication US20250213584A1, “ERCC1-XPF COMPLEX INHIBITOR COMPOUNDS AND THE USE THEREOF IN THE TREATMENT OF CANCER” (FUNDAÇÃO D. ANNA DE SOMMER CHAMPALIMAUD E DR. CARLOS MONTEZ …, priority 2023, published 2025).

One assay addresses T1, ERCC1-XPF (Homo sapiens, UniProt Q92889).
T1 sequence (Q92889 1-916): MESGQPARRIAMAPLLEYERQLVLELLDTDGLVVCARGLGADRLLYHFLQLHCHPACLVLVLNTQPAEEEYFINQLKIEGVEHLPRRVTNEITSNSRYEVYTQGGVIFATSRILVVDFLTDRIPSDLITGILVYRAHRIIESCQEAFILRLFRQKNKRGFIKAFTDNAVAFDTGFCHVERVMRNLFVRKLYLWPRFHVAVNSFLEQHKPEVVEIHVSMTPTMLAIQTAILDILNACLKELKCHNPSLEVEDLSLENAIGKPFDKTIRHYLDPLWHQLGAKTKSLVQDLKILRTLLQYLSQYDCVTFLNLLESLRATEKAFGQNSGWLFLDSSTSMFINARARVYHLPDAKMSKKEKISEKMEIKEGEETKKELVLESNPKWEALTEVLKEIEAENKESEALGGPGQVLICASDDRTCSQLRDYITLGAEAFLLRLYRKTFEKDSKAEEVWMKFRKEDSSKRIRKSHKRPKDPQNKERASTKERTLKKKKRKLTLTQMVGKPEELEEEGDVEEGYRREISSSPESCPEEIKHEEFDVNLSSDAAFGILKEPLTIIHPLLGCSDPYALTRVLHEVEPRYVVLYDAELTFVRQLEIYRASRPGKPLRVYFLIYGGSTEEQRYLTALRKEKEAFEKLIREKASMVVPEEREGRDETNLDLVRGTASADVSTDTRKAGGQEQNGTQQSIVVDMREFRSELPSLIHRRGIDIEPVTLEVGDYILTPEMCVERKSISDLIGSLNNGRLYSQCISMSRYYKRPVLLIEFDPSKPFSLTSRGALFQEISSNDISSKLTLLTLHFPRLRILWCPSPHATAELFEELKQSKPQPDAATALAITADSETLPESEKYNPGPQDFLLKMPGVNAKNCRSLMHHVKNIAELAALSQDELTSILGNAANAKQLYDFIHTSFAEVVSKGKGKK
Conditions: literature; cited from earlier work.

Assay [1] has as its system H1299 cells. The assay can be described thus: Crystal violet (CV) staining assay, cisplatin cytotoxicity. The assay is classed as cell-based, human. Conditions: 72-h incubation. As to the method: To evaluate the cisplatin cytotoxicity effect in the selected H1299 cell line (highest ERCC1 expression), a concentration-response profile was established resorting to two mechanistically different cell viability assays, the CV staining and the MTS reduction assays (FIG. 9). The IC50 values for cisplatin were also calculated for a 72-h incubation period based on its dose-response profile. The cytotoxicity of cisplatin in H1299 cells was evaluated according to a previously described crystal violet (CV) staining protocol. This assay allows the colorimetric determination of adherent cells by staining their nucleus. First, cells were inoculated at a density of approximately 3×10^3 cells/well in 200 μL of complete culture medium in 96-well plates. After adherence (24 h), culture medium was renewed, and the cells were incubated with a range of 1-30 μM of cisplatin for another 72 h. After incubation, cells were washed with warm PBS to remove non-adherent cells (non-viable cells). The adherent cells were then fixated with ice-cold 96% ethanol for 10 min and stained with 0.1% crystal violet in 10% ethanol for 5 min. […] Absorbance was measured at 595 nm (OD595) using a SPECTROstar OMEGA microplate reader. […] The IC50 values were calculated based on the obtained concentration-response curves using GraphPad Prism® 9.0 (GraphPad Software, Inc., La Jolla, CA, USA).

Assay [2] has as its system H1299 cells. The assay can be described thus: MTS reduction assay, cisplatin cytotoxicity. The assay is classed as cell-based, human. As to the method: To evaluate the cisplatin cytotoxicity effect in the selected H1299 cell line (highest ERCC1 expression), a concentration-response profile was established resorting to two mechanistically different cell viability assays, the CV staining and the MTS reduction assays (FIG. 9). The IC50 values for cisplatin were also calculated for a 72-h incubation period based on its dose-response profile. The 3-(4,5-dimethylthiazol-2-yl)-5-(3-carboxymethoxyphenyl)-2-(4-sulfophenyl)-2H-tetrazolium salt (MTS) reduction assay was carried out as a confirmatory assay of cell viability. This methodology is commonly used in in vitro toxicology and is based on the enzymatic reduction of a tetrazolium salt in viable cells by mitochondrial enzymes (NAD-dependent dehydrogenase) with the formation of a colored formazan product. […] H1299 cells were incubated for 2 h30 with the MTS reagent and the absorbance was measured at 490 nm and 690 nm (reference wavelength) using a SPECTROstar OMEGA microplate reader. Absorbance values presented by vehicle-treated control cells corresponded to 100% of cell viability. […] The IC50 was also calculated based on the concentration-response curve using GraphPad Prism® 9.0.

SMILES strings stand for the structures.

Regarding `COc1ccc2nc3cc(Cl)ccc3c(Nc3ccc(O)c(CN4CCN(C)CC4)c3)c2c1` [F06], on ERCC1-XPF, the “disruption of ERCC1-XPF interaction” value was “ability to disrupt the interaction between ERCC1 and XPF”.
As to `N.N.[Cl][Pt][Cl]` [cisplatin], the concentration for half-maximal inhibition (IC50) in the assay with H1299 cells [1] is 3 µM; with H1299 cells [2] (72-h incubation), 3.7 µM. For the same compound, the cell death in the assay with H1299 cells [2] (cisplatin alone at 1 μM, 72 h) is given as 10-15%.

As a reminder, the IC50 is the midpoint of a concentration-inhibition curve. A low value points to higher potency.
